Assay results reported in patent publication US8470607B2, “Inhibition of angiogenesis” (Morphotek, Inc., priority 2008, dated 2013).

Tested on: VEGF-stimulated angiogenesis
Assay: CAM assay of VEGF-stimulated angiogenesis: intravenous TM-601, comparison and combination with Avastin and Lucentis
Type: in vivo, chick
Settings: for relative potency of inhibition of VEGF-stimulated angiogenesis, molar basis: TM-601, Avastin and Lucentis compared on a molar basis
Procedure: The CAM assay was performed using two different methods, depending on the contract laboratory where it was performed. At one contract laboratory, fertilized chick eggs were incubated at 37° C. with 55% humidity. Ten days after fertilization, a small hole was punctured with a hypodermic needle in the area of the shell concealing the air sac. A second hole was punctured in the shell on the broadside of the egg directly over an avascular portion of the embryonic membrane. A false air sac was created beneath the second hold by the application of negative pressure to the first hole, which caused the membrane to separate from the shell. A window approximately 1.0 cm^2 in area was cut in the shell over the dropped CAM with the use of a small grinding wheel, allowing direct access to the underlying CAM. Filter disks were soaked in 3 mg/mL rtisone acetate and subsequently air dried under sterile conditions. […] Sterile filter disks with VEGF at 2 μg/mL were placed on the growing CAMs. […] CAMs were harvested on the 3rd day of stimulation. The CAM tissue directly beneath the filter disk was removed from the embryos and tissues were washed three times with PBS. Blood vessel branch points in the 5 m filter disk area were counted at 30× magnification as a quantitative indicator of vascular sprouting in response to the pro-angiogenic compounds. Each egg was analyzed by two different operators and the average reading was reported. The following equation was used to calculate the mean percent angiogenesis inhibition with VEGF-stimulation:
At the second contract laboratory, the CAM assay was performed as follows. Fertilized chicken eggs were incubated at 37.5° C. in a humidified egg incubator with forced air circulation. […] On embryonic day 7, the CAM membranes were examined and quantitatively analyzed for new blood vessel formation after injection of dyed non-fat dry milk solution. The treatment effects on angiogenesis were evaluated by determining vascular density indexed (VDI) on CAMs only with viable chicken embryos. […]

| Substance | relative potency of inhibition of VEGF-stimulated angiogenesis, by weight of inhibitor (TM-601, Avastin and Lucentis compared on a mass basis) | relative potency of inhibition of VEGF-stimulated angiogenesis, molar basis |
| --- | --- | --- |
| ranabizumab [Lucentis] | most potent | more effective than TM-601 |
| bevacizumab [Avastin] | – | more effective than TM-601 |
